Source: the supplement of paper PMC10307832

Assays:
Assay in all cases: relative viability (nuclei count vs DMSO), 5 days (fraction); higher = more cells survive
[1] = compound: CC1=NN=C(O1)C2=NN=C(C=C2)N3CCC(CC3)OC4=C(C=CC(=C4)F)Cl + O=C(CCCCCCC(=O)Nc1ccccc1)NO [Vorinostat] (partner 1 µM)
Summary of the method: (§1)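 Lung cancer cell lines in 1536-well plates were dosed by pin tool the day after seeding, either with one drug alone or with a fixed anchor-drug dose plus five library-drug doses (not always all listed) in √10 steps. After 5 days, cells were fixed and their nuclei stained in one step (final 0.05% Triton X-100, 1% formaldehyde, 1 ug/ml Hoechst), then counted on 4× images. Relative viability is the nuclei count in treated wells divided by that in vehicle wells. Values are medians of duplicate plates.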

Tosedostat + Olaparib = compound: CC(C)C[C@@H](C(=O)N[C@H](C(=O)OC1CCCC1)c1ccccc1)[C@H](O)C(=O)NO [Tosedostat] + O=C(c1cc(Cc2n[nH]c(=O)c3ccccc23)ccc1F)N1CCN(C(=O)C2CC2)CC1 [Olaparib] (partner 8 µM)
Summary of the method: as §1

Tosedostat + Pemetrexed = compound: CC(C)C[C@@H](C(=O)N[C@H](C(=O)OC1CCCC1)c1ccccc1)[C@H](O)C(=O)NO [Tosedostat] + Nc1nc2[nH]cc(CCc3ccc(C(=O)N[C@@H](CCC(=O)O)C(=O)O)cc3)c2c(=O)[nH]1 [Pemetrexed] (partner 0.2 µM)
Summary of the method: as §1

[2] = compound: CC1=NN=C(O1)C2=NN=C(C=C2)N3CCC(CC3)OC4=C(C=CC(=C4)F)Cl + CS(=O)(=O)N1CCN(Cc2cc3nc(-c4cccc5[nH]ncc45)nc(N4CCOCC4)c3s2)CC1 [Pictilisib] (partner 1 µM)
Summary of the method: as §1

Cell Line	relative viability ([1]; first compound 0.253 µM)	relative viability ([1]; first compound 0.8 µM)	relative viability ([1]; first compound 2.53 µM)	relative viability ([1]; first compound 8 µM)	relative viability (Tosedostat + Olaparib; first compound 0.02 µM)	relative viability (Tosedostat + Olaparib; first compound 0.06325 µM)	relative viability (Tosedostat + Olaparib; first compound 0.2 µM)	relative viability (Tosedostat + Olaparib; first compound 0.6325 µM)	relative viability (Tosedostat + Olaparib; first compound 2 µM)	relative viability (Tosedostat + Pemetrexed; first compound 0.02 µM)	relative viability (Tosedostat + Pemetrexed; first compound 0.06325 µM)	relative viability (Tosedostat + Pemetrexed; first compound 0.2 µM)	relative viability (Tosedostat + Pemetrexed; first compound 0.6325 µM)	relative viability (Tosedostat + Pemetrexed; first compound 2 µM)	relative viability ([2]; first compound 0.253 µM)	relative viability ([2]; first compound 0.8 µM)	relative viability ([2]; first compound 2.53 µM)	relative viability ([2]; first compound 8 µM)
NCI-H358	0.405	0.341	0.399	0.35	0.547	0.679	0.438	0.229	0.211	0.173	0.2	0.164	0.143	0.161	0.355	0.345	0.387	0.357
NCI-H441	0.424	0.384	0.302	0.382	0.711	0.533	0.364	0.384	0.322	0.228	0.246	0.275	0.266	0.309	0.504	0.423	0.389	0.389
NCI-H460	0.16	0.215	0.208	0.19	0.424	0.438	0.392	0.326	0.388	0.0658	0.062	0.0697	0.0606	0.0547	0.24	0.329	0.232	0.221
NCI-H520	0.561	0.712	0.569	0.613	0.402	0.362	0.293	0.301	0.304	0.728	0.773	0.743	0.782	0.734	0.3	0.325	0.29	0.316
NCI-H596	0.474	0.564	0.6	0.567	0.66	0.662	0.776	0.598	0.49	0.468	0.488	0.515	0.497	0.45		0.352	0.366	0.363
NCI-H647	0.204	0.136	0.0766	0.0534	0.799	0.446	0.506	0.376	0.51	0.178	0.163	0.167	0.196	0.179	0.398	0.552	0.392	0.391
NCI-H650	0.451	0.248	0.294	0.329	0.368	0.362	0.381	0.271	0.219	1.01	0.846	0.895	0.873	0.804	0.869	0.775	0.47	0.889
